Reference: patent publication EP0007525A1, “2-(4-Aminopiperidino)-3.4-dihydroquinoline derivatives, processes for their preparation, pharmaceutical compositions containing them and their use” (HOECHST AKTIENGESELLSCHAFT, priority 1978, dated 1980)

How the values were obtained:
Assay type in all cases: in vivo
narkosierten Hund = experiment: Blood pressure lowering in the anaesthetised dog (pentobarbital sodium), i.v. administration; conditions: 1 mg/kg intravenous; for Blutdrucksenkung: significant lowering; for Dauer der Blutdrucksenkung: time over which lowering of at least 20 mm persists
Procedure: (§1) 1)Die blutdrucksenkende Wirkung wurde am narkosierten Hund und an der Hochdruckratete bestimmt.
Hunde werden mit Pentobarbital-Natrium (^(R)Nembutal) (35 mg/kg i.p.) narkotisiert, die Prüfsubstanz in Dosen von 0,5-5 mg/kg. intravenös appliziert und die Blutdrucksenkung laufend über 30 bis 60 Minuten, bei längerer Wirksamkeit auch länger, fortlaufend registriert. Eine signifikante Senkung von mindestens 20 mm über mindestens 30 Minuten tritt z.B. nach Applikation der Verbindungen der Beispiele Nr. 6 und 31b in Dosen von jeweils 1 mg/kg ein.

[1] = test system: genetischen Hochdruckratte; experiment: Blood pressure lowering in the genetically hypertensive rat, oral administration; conditions: 15 mg/kg per os, within 18 hours
Procedure: as §1
Zur Prüfung an der genetischen Hochdruckratte werden die Substanzen oral verabreicht. Die Verbindung des Beispiels 31b bewirkt bei einer Dosierung von 15 mg/kg per os innerhalb von 18 Stunden einen Blutdruckabfall von 30 - 50 mm.

[2] = test system: mit Strophantin vergiftete Hund; experiment: Antiarrhythmic effect in the strophanthin-poisoned dog (ventricular extrasystoles, ECG); conditions: dog poisoned with K-Strophanthin i.v. infusion until frequent ventricular extrasystoles; 1 mg/kg intravenous; active = arrhythmia completely abolished
Text: 2) Zur Prüfung auf antiarrythmische Wirkung wird der mit Strophantin vergiftete Hund verwendet (Methode: Laszlo Szekeres, Institute of Pharmacology, University Medical School of Szeged, Hungary, Methods for Evaluating Antiarrhytmic Agents" in Methods in Pharmacology I, New York 1971, Herausgeber A. Schwartz).

| Compound | Blutdrucksenkung (narkosierten Hund) [mm] | Dauer der Blutdrucksenkung (narkosierten Hund) [Minuten] | Blutdruckabfall [1] | antiarrythmische Wirkung (Beseitigung der Rhythmusstörungen) [2] |
| --- | --- | --- | --- | --- |
| COc1cc2c(cc1OC)N=C(N1CCC(NC(=O)c3ccccc3)CC1)CC2 [Beispiel 6] | ≥ 20 | ≥ 30 | – | – |
| NC1CCN(C2=Nc3ccccc3CC2)CC1 [Beispiel 31b, 2-(4-Amino-1-piperidyl)-3,4-dihydrochinolin] | ≥ 20 | ≥ 30 | 30 - 50 mm | – |
| CC(C)(C)OC(=O)NC1CCN(C2=Nc3ccccc3CC2)CC1 [Beispiel 31a, 2-(4-Tert.butyloxycarbonylamino-1-piperidyl)-3,4-dihydro-chinolin] | – | – | – | Rhythmusstörungen völlig zu beseitigen vermochte |
